# From ChEMBL document CHEMBL5209584, “Membrane potential based assay for SLC15A2 using HEK-293 SLC15A2 OE cells” (2022)
# Several values for one entry are separate records, joined by “and”; a condition that tells them apart may be missing. Identical values can stand only once. Square brackets hold non-standard residues; d marks the D form. Peptide text beside a SMILES is read from it. Sar = CNCC(=O)O
# Biological target: T1, Solute carrier family 15 member 2 (Homo sapiens, UniProt Q16348)
# T1 sequence (Q16348 whole entry): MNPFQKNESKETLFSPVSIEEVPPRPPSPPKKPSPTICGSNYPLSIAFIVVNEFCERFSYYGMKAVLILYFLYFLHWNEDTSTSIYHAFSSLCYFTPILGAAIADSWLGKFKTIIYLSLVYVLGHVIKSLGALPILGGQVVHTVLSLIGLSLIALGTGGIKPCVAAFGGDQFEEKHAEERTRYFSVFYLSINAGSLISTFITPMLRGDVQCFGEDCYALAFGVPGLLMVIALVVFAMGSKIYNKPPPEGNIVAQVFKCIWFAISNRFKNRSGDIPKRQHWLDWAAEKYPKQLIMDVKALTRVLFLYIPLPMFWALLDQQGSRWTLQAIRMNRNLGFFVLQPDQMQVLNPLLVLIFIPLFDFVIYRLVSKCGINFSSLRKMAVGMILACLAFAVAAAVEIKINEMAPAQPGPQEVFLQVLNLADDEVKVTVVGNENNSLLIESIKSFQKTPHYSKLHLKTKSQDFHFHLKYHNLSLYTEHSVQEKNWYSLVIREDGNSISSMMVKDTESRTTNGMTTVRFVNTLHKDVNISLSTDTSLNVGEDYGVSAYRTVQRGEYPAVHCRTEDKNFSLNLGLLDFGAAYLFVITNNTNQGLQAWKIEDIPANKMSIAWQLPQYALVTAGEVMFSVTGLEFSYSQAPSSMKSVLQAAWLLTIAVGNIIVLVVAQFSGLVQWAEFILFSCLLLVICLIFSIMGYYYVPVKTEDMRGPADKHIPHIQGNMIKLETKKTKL
# Experiment: Substrate uptake by the Peptide Transporter 2 (PEPT2, SLC15A2) as assessed by the fluorescent FLIPR membrane potential dye in HEK-293 JumpIN-SLC15A2 cells (PubChem AID: 1794819)
# Assay type: functional, cell-based, HEK293
row,EC50,SMILES
1,28 µM,NCCC(=O)N[C@@H](Cc1cnc[nH]1)C(=O)O [CARNOSINE]
2,123 µM and 39 µM,CN(CC(=O)O)C(=O)CN [GLYCYLSARCOSINE] (H-Gly-[Sar]-OH)
